In US5645852A, “Butyric ester cyto-differtiating agents” (Sloan-Kettering Institute for Cancer Research, priority 1995, dated 1997):
Values belong to the compound of their own block, whether it stands above or below them.

Experiments:
HT-29 = conditions: in vitro; cited from earlier work
HL-60 = conditions: in vitro; cited from earlier work
[1] = system: aberrant blood cells of sickle cell anemia; conditions: in vitro; cited from earlier work
[2] = system: aberrant blood cells of thalassemia; conditions: in vitro; cited from earlier work
[3] = plasma, humans and rabbits; cited from earlier work
[4] = intravenous infusion, 500 mg/kg per day; cited from earlier work
leukemia [5] = conditions: intravenous infusion, 500 mg/kg per day; cited from earlier work
leukemia [6] = conditions: intravenous infusions 500 mg/kg body weight per day for several days, child with leukemia; cited from earlier work
thalassemia = conditions: continuous intravenous infusions, 500 mg/kg/day or higher, several days; cited from earlier work
sickle cell = conditions: continuous intravenous infusions, 500 mg/kg/day or higher, several days; cited from earlier work
[7] = continuous intravenous infusions, 500 mg/kg/day or higher, several days; cited from earlier work
[8] = system: 1,2-dimethylhydraxine-induced rat intestine neoplasia; conditions: equivalent intake to tributyrin at 5% of feed; cited from earlier work
[9] = system: cancer or transformed cells lines; conditions: combinations of sodium butyrate and active Vitamin D forms; cited from earlier work
[10] = design: species or system male Sprague Dawley rats; conditions: rat, in vivo
Method: Three male Sprague Dawley rats (Harlan Sprague Dawley, Houston, Tex.) weighing approximately 306 g were fasted overnight and gavaged with 1 gm of tributyrin (Sigma catalog #T-5142, 99% pure, 302.4M) directly into the stomach. A fourth rat-was not gavaged. Rats were sacrificed at time zero (without gavage) or 0.5, 2 and 4 hours post gavage. At time of sacrifice, each rat was anesthetized with a mixture of ketamine (87 mg/kg) and rompun (13 mg/kg). A cardiac puncture was performed and approximately 2 mls of blood was withdrawn into a heparinized vacutainer tube. Blood was centrifuged at 2000×g for 7 minutes and plasma was withdrawn and stored frozen until analysis. At the time of analysis, plasma concentration was determined by the method of Remsey and Demigne (1974) using chromatographic methods as described by Boffa et al. (1992).
A single oral dose bolus of 1 gm of tributyrin was administered to rats, and the plasma levels of free butyrate measured over 4 hours.

[11] = system: chemically induced colon cancer; conditions: 5% of the feed, mice; cited from earlier work

Compound: CCCC(=O)O [butyrate, butyric acid]
concentration at which butyrate has differentiation action (HT-29): 0.3 to 5 mM | concentration at which butyrate has differentiation action (HL-60): 0.3 to 5 mM | concentration giving desirable changes of aberrant blood cells [1]: about 0.05 mM | concentration giving desirable changes of aberrant blood cells [2]: about 0.05 mM

Compound: CCCC(=O)[O-].[Na+] [sodium butyrate]
half-life [3]: about 6 minutes | metabolic half-life [4]: about 6 minutes | clinical response (leukemia [5]): no clinical response | remission (leukemia [6]): short-lived remission | success in treating thalassemia patients (thalassemia): success | success in treating sickle cell patients (sickle cell): success | metabolism of butyrate [7]: apparently rapidly metabolized | promoting or cancer increasing effect [8]: promoting or cancer increasing effect | effect of combination with active Vitamin D forms on differentiation [9]: additive or synergistic effects

absorption of butyrate [10]: very rapidly absorbed | return of plasma butyrate to baseline [10]: almost back to baseline at 4 hours | half-life of butyrate ([10]; po): about 40 minutes | peak level of butyrates ([10]; po): 0.35 mM | time over 0.10 mM butyrate ([10]; po): about 2 hours
Compound: CCCC(=O)OCC(COC(=O)CCC)OC(=O)CCC [tributyrin, glyceryl tributyrate]
prevention of chemically induced colon cancer [11]: ineffective | promoting or cancer increasing effect [11]: did not produce the promoting or cancer increasing effect
